Measurements from patent US10323036B2 (Nimbus Lakshmi, Inc., priority 2016, dated 2019).
Read-outs that look alike come from different tables or passages of the source.

Molecular target: human TYK2 (JH2domain-pseudokinase) (Homo sapiens (Human), UniProt P29597)
Test: TYK2 JH2 Domain Binding Assay (KINOMEscan)
Settings: read-out: JH2 Kd
[1] = Table 5, Tyk2 JH2 Domain Binding Assay

Chain of human TYK2 (JH2domain-pseudokinase) (P29597 556-888): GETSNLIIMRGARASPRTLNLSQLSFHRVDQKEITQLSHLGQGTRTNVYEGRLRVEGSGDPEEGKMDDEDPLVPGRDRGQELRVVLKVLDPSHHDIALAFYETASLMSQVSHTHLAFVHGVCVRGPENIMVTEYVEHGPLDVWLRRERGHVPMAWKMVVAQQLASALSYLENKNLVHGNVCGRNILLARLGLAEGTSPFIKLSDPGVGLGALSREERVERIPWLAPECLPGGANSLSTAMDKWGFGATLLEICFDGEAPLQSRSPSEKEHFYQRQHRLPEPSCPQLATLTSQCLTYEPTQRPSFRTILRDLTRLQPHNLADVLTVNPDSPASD

## COc1c(Nc2cc(Nc3cc(C)nc(C)n3)nc3[nH]n(C)c(=O)c23)cccc1-c1ncn(C)n1 [Compound I-22, 6-((2,6-dimethylpyrimidin-4-yl)amino)-4-((2-methoxy-3-(1-methyl-1H-1,2,4-triazol-3-yl)phenyl)amino)-2-methyl-1,2-dihydro-3H-pyrazolo[3,4-b]pyridin-3-one]
Table 4, JH2 binding assay
  Kd: 0.5 to 1 nM

## Cc1cc(Nc2cc(Nc3ccc(Cl)cc3S(C)(=O)=O)c3c(=O)n(C)[nH]c3n2)nc(C)n1 [Compound I-199, 4-((4-chloro-2-(methylsulfonyl)phenyl)amino)-6-((2,6-dimethylpyrimidin-4-yl)amino)-2-methyl-1,2-dihydro-3H-pyrazolo[3,4-b]pyridin-3-one]
Table 4, JH2 binding assay
  Kd: 0.1 to 0.5 nM

## COc1c(F)cccc1Nc1cc(Nc2ccccn2)nc2[nH]n(C)c(=O)c12 [Compound I-80, 4-((3-fluoro-2-methoxyphenyl)amino)-2-methyl-6-(pyridin-2-ylamino)-1,2-dihydro-3H-pyrazolo[3,4-b]pyridin-3-one]
Table 4, JH2 binding assay
  Kd: 1 to 10 nM

## CCn1nc(-c2cccc(-c3nnn(C)n3)c2OC)c2cc(NC(=O)C3CC3)ncc21 [XVI-5, N-(1-ethyl-3-(2-methoxy-3-(2-methyl-2H-tetrazol-5-yl)phenyl)-1H-pyrazolo[3,4-c]pyridin-5-yl)cyclopropanecarboxamide]
[1]
  Kd: 10 to 100 nM

## COc1c(Nc2cc(Nc3cncc(C#N)n3)nc3[nH]n(C)c(=O)c23)cccc1-c1nnn(C)n1 [Compound I-64, 6-((4-((2-methoxy-3-(2-methyl-2H-tetrazol-5-yl)phenyl)amino)-2-methyl-3-oxo-2,3-dihydro-1H-pyrazolo[3,4-b]pyridin-6-yl)amino)pyrazine-2-carbonitrile]
Table 4, JH2 binding assay
  Kd: < 0.1 nM

## COc1c(F)cccc1Nc1cc(Nc2cccc(C#N)n2)nc2[nH]n(C)c(=O)c12 [Compound I-81, 6-((4-((3-fluoro-2-methoxyphenyl)amino)-2-methyl-3-oxo-2,3-dihydro-1H-pyrazolo[3,4-b]pyridin-6-yl)amino)picolinonitrile]
Table 4, JH2 binding assay
  Kd: 0.1 to 0.5 nM

## COc1c(C#N)cccc1Nc1cc(Nc2cc(C)c(F)cn2)nc2[nH]n(C)c(=O)c12 [Compound I-37]
Table 4, JH2 binding assay
  Kd: > 10 nM

## COc1c(Nc2cc(Nc3cc(C)nc(C)n3)nc3[nH]n(C)c(=O)c23)cccc1-c1ccn(C)n1 [Compound I-123, 6-((2,6-dimethylpyrimidin-4-yl)amino)-4-((2-methoxy-3-(1-methyl-1H-pyrazol-3-yl)phenyl)amino)-2-methyl-1,2-dihydro-3H-pyrazolo[3,4-b]pyridin-3-one]
Table 4, JH2 binding assay
  Kd: 0.1 to 0.5 nM

## COc1c(F)cccc1Nc1cc(Nc2ccc(C)nn2)nc2[nH]n(C)c(=O)c12 [Compound I-75, 4-((3-fluoro-2-methoxyphenyl)amino)-2-methyl-6-((6-methylpyridazin-3-yl)amino)-1,2-dihydro-3H-pyrazolo[3,4-b]pyridin-3-one]
Table 4, JH2 binding assay
  Kd: 0.1 to 0.5 nM

## CCc1ncc(Nc2cc(Nc3cccc(F)c3OC)c3c(=O)n(C)[nH]c3n2)nc1C#N [Compound I-148, 3-ethyl-6-((4-((3-fluoro-2-methoxyphenyl)amino)-2-methyl-3-oxo-2,3-dihydro-1H-pyrazolo[3,4-b]pyridin-6-yl)amino)pyrazine-2-carbonitrile]
Table 4, JH2 binding assay
  Kd: > 10 nM

## COc1c(Nc2cc(NC(=O)C3CC3)ncc2-c2ccon2)cccc1-c1nnn(C)n1 [VIII-8, N-(5-(isoxazol-3-yl)-4-((2-methoxy-3-(2-methyl-2H-tetrazol-5-yl)phenyl)amino)pyridin-2-yl)cyclopropanecarboxamide]
[1]
  Kd: > 100 nM

## COc1c(Nc2cc(NC(=O)C3CC3)nc3[nH]n(C)c(=O)c23)cccc1-n1cccn1 [Compound I-56, N-(4-((2-methoxy-3-(1H-pyrazol-1-yl)phenyl)amino)-2-methyl-3-oxo-2,3-dihydro-1H-pyrazolo[3,4-b]pyridin-6-yl)cyclopropanecarboxamide]
Table 4, JH2 binding assay
  Kd: 0.5 to 1 nM

## Cn1[nH]c2nc(Nc3ccc(C4CC4)cn3)cc(Nc3ccccc3S(C)(=O)=O)c2c1=O [Compound I-143, 6-((5-cyclopropylpyridin-2-yl)amino)-2-methyl-4-((2-(methylsulfonyl)phenyl)amino)-1,2-dihydro-3H-pyrazolo[3,4-b]pyridin-3-one]
Table 4, JH2 binding assay
  Kd: 0.1 to 0.5 nM

## COc1c(Nc2cc(NC(=O)C3CC3)nc3[nH]n(C)c(=O)c23)cccc1-c1n[nH]c(C)n1 [Compound I-62]
Table 4, JH2 binding assay
  Kd: < 0.1 nM

## Cn1[nH]c2nc(NC(=O)[C@@H]3C[C@@H]3F)cc(Nc3ccc(C4CC4)cc3S(C)(=O)=O)c2c1=O [Compound I-210]
Table 4, JH2 binding assay
  Kd: 0.1 to 0.5 nM

## COc1c(Nc2cc(Nc3cc(C#N)ccn3)nc3[nH]n(C)c(=O)c23)cccc1-c1nnn(C)n1 [Compound I-32, 2-((4-((2-methoxy-3-(2-methyl-2H-tetrazol-5-yl)phenyl)amino)-2-methyl-3-oxo-2,3-dihydro-1H-pyrazolo[3,4-b]pyridin-6-yl)amino)isonicotinonitrile]
Table 4, JH2 binding assay
  Kd: > 10 nM

## CN(c1ccccc1Nc1cc(Nc2cnc3c(n2)CCC3)nc2[nH]n(C)c(=O)c12)S(C)(=O)=O [Compound I-225, N-(2-((6-((6,7-dihydro-5H-cyclopenta[b]pyrazin-2-yl)amino)-2-methyl-3-oxo-2,3-dihydro-1H-pyrazolo[3,4-b]pyridin-4-yl)amino)phenyl)-N-methylmethanesulfonamide]
Table 4, JH2 binding assay
  Kd: < 0.1 nM

## CN(c1ccccc1Nc1cc(NC(=O)[C@@H]2C[C@@H]2F)nc2[nH]n(C)c(=O)c12)S(C)(=O)=O [Compound I-216, (1S,2S)-2-fluoro-N-(2-methyl-4-((2-(N-methylmethylsulfonamido)phenyl)amino)-3-oxo-2,3-dihydro-1H-pyrazolo[3,4-b]pyridin-6-yl)cyclopropane-1-carboxamide]
Table 4, JH2 binding assay
  Kd: 0.1 to 0.5 nM

## Cn1[nH]c2nc(Nc3ccc(C#N)cn3)cc(Nc3ccccc3S(C)(=O)=O)c2c1=O [Compound I-139, 6-((2-methyl-4-((2-(methylsulfonyl)phenyl)amino)-3-oxo-2,3-dihydro-1H-pyrazolo[3,4-b]pyridin-6-yl)amino)nicotinonitrile]
Table 4, JH2 binding assay
  Kd: 0.1 to 0.5 nM

## COc1c(Nc2cc(Nc3cc(C#N)ncn3)nc3[nH]n(C)c(=O)c23)cccc1-c1nnn(C)n1 [Compound I-29, 6-((4-((2-methoxy-3-(2-methyl-2H-tetrazol-5-yl)phenyl)amino)-2-methyl-3-oxo-2,3-dihydro-1H-pyrazolo[3,4-b]pyridin-6-yl)amino)pyrimidine-4-carbonitrile]
Table 4, JH2 binding assay
  Kd: 0.1 to 0.5 nM

## COc1c(Nc2cc(Nc3cccc(C4CC4)n3)nc3[nH]n(C)c(=O)c23)cccc1-c1nnn(C)n1 [Compound I-65, 6-((6-cyclopropylpyridin-2-yl)amino)-4-((2-methoxy-3-(2-methyl-2H-tetrazol-5-yl)phenyl)amino)-2-methyl-1,2-dihydro-3H-pyrazolo[3,4-b]pyridin-3-one]
Table 4, JH2 binding assay
  Kd: 0.1 to 0.5 nM

## Cc1cc(Nc2cc(Nc3ccccc3S(C)(=O)=O)c3c(=O)n(C)[nH]c3n2)nc(C)n1 [Compound I-108, 6-((2,6-dimethylpyrimidin-4-yl)amino)-2-methyl-4-((2-(methylsulfonyl)phenyl)amino)-1,2-dihydro-3H-pyrazolo[3,4-b]pyridin-3-one]
Table 4, JH2 binding assay
  Kd: 0.1 to 0.5 nM

## COc1c(C#N)cccc1Nc1cc(Nc2ccc(C)nn2)nc2[nH]n(C)c(=O)c12 [Compound I-38]
Table 4, JH2 binding assay
  Kd: > 10 nM

## CN(c1cc(Cl)ccc1Nc1cc(NC(=O)C2CC2)nc2[nH]n(C)c(=O)c12)S(C)(=O)=O [Compound I-228, N-(4-((4-chloro-2-(N-methylmethylsulfonamido)phenyl)amino)-2-methyl-3-oxo-2,3-dihydro-1H-pyrazolo[3,4-b]pyridin-6-yl)cyclopropanecarboxamide]
Table 4, JH2 binding assay
  Kd: 0.1 to 0.5 nM

## COc1c(Cl)cccc1Nc1cc(Nc2cc3n(n2)CCOC3)nc2[nH]n(C)c(=O)c12 [Compound I-221, 4-((3-chloro-2-methoxyphenyl)amino)-6-((6,7-dihydro-4H-pyrazolo[5,1-c][1,4]oxazin-2-yl)amino)-2-methyl-1,2-dihydro-3H-pyrazolo[3,4-b]pyridin-3-one]
Table 4, JH2 binding assay
  Kd: 0.1 to 0.5 nM

## COc1c(F)cccc1Nc1cc(Nc2ccc(N3CCOCC3)cn2)nc2[nH]n(C)c(=O)c12 [Compound I-89, 4-((3-fluoro-2-methoxyphenyl)amino)-2-methyl-6-((5-morpholinopyridin-2-yl)amino)-1,2-dihydro-3H-pyrazolo[3,4-b]pyridin-3-one]
Table 4, JH2 binding assay
  Kd: 1 to 10 nM

## COc1c(Nc2cc(NC(=O)C3CC3)nc3[nH]n(C)c(=O)c23)ccc(F)c1F [Compound I-127, N-(4-((3,4-difluoro-2-methoxyphenyl)amino)-2-methyl-3-oxo-2,3-dihydro-1H-pyrazolo[3,4-b]pyridin-6-yl)cyclopropanecarboxamide]
Table 4, JH2 binding assay
  Kd: > 10 nM

## COc1c(Nc2cc(Nc3ccc(N4CCCC4)cn3)nc3[nH]n(C)c(=O)c23)cccc1-c1nnn(C)n1 [Compound I-58, 4-((2-methoxy-3-(2-methyl-2H-tetrazol-5-yl)phenyl)amino)-2-methyl-6-((5-(pyrrolidin-1-yl)pyridin-2-yl)amino)-1,2-dihydro-3H-pyrazolo[3,4-b]pyridin-3-one]
Table 4, JH2 binding assay
  Kd: > 10 nM

## COc1c(Cl)cccc1Nc1cc(Nc2ccc(C)nn2)nc2[nH]n(C)c(=O)c12 [Compound I-105, 4-((3-chloro-2-methoxyphenyl)amino)-2-methyl-6-((6-methylpyridazin-3-yl)amino)-1,2-dihydro-3H-pyrazolo[3,4-b]pyridin-3-one]
Table 4, JH2 binding assay
  Kd: 1 to 10 nM

## COc1c(F)cccc1Nc1cc(Nc2cccc(C3CC3)n2)nc2[nH]n(C)c(=O)c12 [Compound I-87, 6-((6-cyclopropylpyridin-2-yl)amino)-4-((3-fluoro-2-methoxyphenyl)amino)-2-methyl-1,2-dihydro-3H-pyrazolo[3,4-b]pyridin-3-one]
Table 4, JH2 binding assay
  Kd: 1 to 10 nM

## COc1c(Cl)cccc1Nc1cc(Nc2ccc(C(=O)N3CCOCC3)c(C(F)(F)F)n2)nc2[nH]n(C)c(=O)c12 [Compound I-130, 4-((3-chloro-2-methoxyphenyl)amino)-2-methyl-6-((5-(morpholine-4-carbonyl)-6-(trifluoromethyl)pyridin-2-yl)amino)-1,2-dihydro-3H-pyrazolo[3,4-b]pyridin-3-one]
Table 4, JH2 binding assay
  Kd: 0.1 to 0.5 nM

## COc1c(Nc2cc(NC(=O)C3CC3)nc3[nH]n(C)c(=O)c23)cccc1-c1ncnn1C [Compound I-54, N-(4-((2-methoxy-3-(1-methyl-1H-1,2,4-triazol-5-yl)phenyl)amino)-2-methyl-3-oxo-2,3-dihydro-1H-pyrazolo[3,4-b]pyridin-6-yl)cyclopropanecarboxamide]
Table 4, JH2 binding assay
  Kd: 0.5 to 1 nM
